Measurements as given in article PMC8096218, “Global RNA profiles show target selectivity and physiological effects of peptide-delivered antisense antibiotics” (Nucleic Acids Research, 2021).
Where “and” joins values, the source holds several entries; their conditions need not be identical. Equal entries are not always repeated. Where two headings read alike, the source gives them in different places.

Legend:
[1] = system: wild-type (wt) Salmonella enterica serovar Typhimurium strain SL1344; settings: for MIC: non-cation-adjusted MHB, 37°C, 24 h; for MIC in μM, SL1344 wt: Table 3, three biological replicates
Experimental: (§1) MIC values were determined by broth microdilution according to standard protocols with a few modifications ([26]). An overnight bacterial cell culture, supplemented with the appropriate antibiotic when needed, was diluted 1:100 in fresh MHB and grown to OD600 0.5. The obtained culture was diluted to ∼10^5 cfu/ml or 10^6 cfu/ml, as indicated, in non-cation-adjusted MHB. Subsequently, 190 μl bacterial solution was dispensed into a 96-well plate (Thermo Fisher Scientific) along with 10 μl of a 20x PPNA, PNA or peptide working solution. Growth was monitored by measuring the OD at 600 nm every 20 min in a Synergy H1 plate reader (Biotek) with continuous double-orbital shaking (237 cpm) at 37°C for 24 h.

SL1344 ΔphoP = experiment: MIC determination by broth microdilution; type: cell-based, Salmonella enterica serovar Typhimurium; settings: ∼10^5 cfu/ml; for MIC in μM, SL1344 ΔphoP: Table 3, three biological replicates
Experimental: as §1
Fig. S4. Growth kinetics for MIC determ ination of 10^5 cfu/m l Salmonella wt (SL1344) and its isogenic ∆phoP m utant in the pres ence of var ying concentrations of the indicated conjugates. ( A) KFF-acpP, KFF-acpP-scram bled (scr) or KFF peptide in serial dilutions from 10 µM to 0.3 µM. ( B) RXR- acpP, RXR-acpP-scram bled (scr) or RXR peptide in seria l d ilutions f rom 10 µM to 0. 3 µM. ( C) T at-acpP, T at-acpP-scrambled (scr) or T at peptide in serial dilutions from 20 µM to 0.6 µM. D ata represent the average of three biological replicates, error bars indicate standard er ror of the m ean […]
(§2) (1 picture or pasted object on this page, not shown here)

LT2 PhoP^C = experiment: MIC determination by broth microdilution; type: cell-based, Salmonella enterica serovar Typhimurium; settings: ∼10^5 cfu/ml; for increase in the MIC in the PhoP^C background compared to the wild-type strain: LT2 PhoP^C versus LT2 wt; for MIC in μM, LT2 PhoP^C: Table 3, three biological replicates
Experimental: as §1
Fig. S5. Growth k inetics for MIC determ ination of 10^5 cfu/m l Salmonella wt (LT 2) and its isogenic
Pho PC m utant in the presen ce of var ying co ncentra tio n s of the in dicat ed co njugat e s. ( A) KFF-acpP,
KFF-acpP-scram bled (scr) or KFF peptide in s erial dilutions from 10 µM to 0.3 µM. ( B) RXR- acpP,
RXR- acpP-scram bled (scr) or RXR peptide in serial dilutions from 10 µM to 0.3 µ M. ( C) T at-acpP,
T at-acpP-scram bled (scr) or T at peptide in serial dilutions from 20 µM to 0.6 µM. Data represent
the average of three biological replicates, error bars indicate standard error of the m ean (SEM).
as §2

acpP mRNA = experiment: RNA-seq differential expression, target transcript; type: cell-based, Salmonella enterica serovar Typhimurium; settings: 5 μM KFF-/RXR-constructs, 10 μM Tat-constructs, triplicates; for reduction in acpP transcript levels (RNA-seq): 15 min post treatment, ∼10^6 cfu/ml, versus water control; for logFC acpP: edgeR, versus water, 15 min
Experimental: (§3) Bacterial overnight cultures were diluted 1:100 in fresh MHB and grown to OD600 0.5. The obtained cultures were diluted to ∼10^6 cfu/ml in non-cation-adjusted MHB. Afterward, the bacterial solution was transferred into low-binding 5 ml tubes (LABsolute) along with the 20× PNA, peptide or PPNA solution. The final concentrations were 5 μM for KFF- and RXR-PNAs, and 10 μM for Tat-PNAs. Equimolar concentrations were used for the respective peptide control conditions. As a negative control, cells were treated with the respective volume of sterile nuclease-free water, which was used as solvent for the test compounds.
(§4) A time kinetic was performed for subsequent northern blot analysis (5, 10, 15 min), in which the reaction was stopped at the indicated time points by using RNAprotect Bacteria (Qiagen). For RNA-seq analyses, adding RNAprotect Bacteria at 15 min post treatment stopped the reactions with the indicated PPNA constructs or the respective peptide. After vortexing for 5 s, the samples were incubated at room temperature for 10 min, followed by cell pelleting at 4°C and 21 100 ×g for 20 min. Pellets were directly used for RNA isolation or stored at –20°C (<2 days) until further processing. RNA was purified from bacterial pellets using isolation protocol #3, as described above (0.5 mg/ml lysozyme, miRNeasy).
(§5) DNase treatment, cDNA library preparation and sequencing was conducted at Vertis (Munich, Germany). The RNA samples were first fragmented using ultrasound (4 pulses of 30 s each at 4°C). Then, an oligonucleotide adapter was ligated to the 3′ ends of the RNA molecules. First-strand cDNA synthesis was performed using M-MLV reverse transcriptase and the 3′ adapter as primer. The first-strand cDNA was purified and the 5′ Illumina TruSeq sequencing adapter was ligated to the 3′ end of the antisense cDNA. The resulting cDNA was PCR-amplified to about 10–20 ng/μl using a high fidelity DNA polymerase. The cDNA was purified using the Agencourt AMPure XP kit (Beckman Coulter Genomics) and was analyzed by capillary electrophoresis. For Illumina NextSeq sequencing, the samples were pooled in approximately equimolar amounts. The cDNA pool was sequenced on an Illumina NextSeq 500 system using 75 bp read length.
(§6) Reads from the RNA-Seq experiments were trimmed, filtered and mapped against the S. enterica subsp. enterica serovar Typhimurium SL1344 reference genome and the three plasmids pSLT_SL1344, pCol1B9_SL1344 (other name is p2), and pRSF1010_SL1344 ([19]). BBDuk was applied to trim bases with a Phred quality score of <10, and adapters were removed simultaneously. Reads were then mapped against the reference genome using BBMap (v38.84) and then assigned genomic features, including both coding sequences and annotated sRNAs ([19],[29]) using the featureCounts method of the Subread (2.0.1) package.
(§7) All downstream analysis was performed using packages from the R/Bioconductor project. The raw read counts were imported and analyzed with edgeR (v3.30.0). Each set of PNA-peptide conjugate experiments (i.e. experiments with KFF, RXR and Tat peptide) was analyzed simultaneously. Genes with less than 14.6 counts per million (CPM) in at least three libraries were filtered. This cutoff value was calculated using 10/L, where L is the library size of the smallest sample (minimum library size) in millions.
(§8) Raw read counts were normalized by trimmed mean of M values (TMM) normalization. Differential expression analysis was conducted using edgeR ([31]). Estimation of quasi-likelihood (QL) dispersions was then run with the […] function. Then contrasts between all samples versus the water controls were created as input for the glmQLTest function.
(§9) Genes with an absolute fold change >2 and an adjusted P-value (Benjamini–Hochberg, ([32])) <0.001 were considered differentially expressed.

[2] = system: Salmonella gene expression; experiment: RNA-seq transcriptomic response; type: cell-based, Salmonella enterica serovar Typhimurium; settings: 15 min
Experimental: as §3, §4, §5, §6, §7, §8, §9

[3] = Table 1, ∼10^5 cfu/ml, lowest concentration with OD600 < 0.1
[4] = Table 2, ∼10^6 cfu/ml, performed three times
[5] = edgeR, versus water, 5 μM RXR-constructs, 10 μM Tat-constructs, triplicates, listed as PNATAT
[6] = edgeR, versus water, 5 μM KFF-/RXR-constructs, 10 μM Tat-constructs, triplicates, listed as PNAKFF
[7] = edgeR, versus water, 5 μM RXR-constructs, 10 μM Tat-constructs, triplicates, listed as PNARXR

Sequence	MIC ([1]; Table 1, ∼10^5 cfu/ml) [µg/mL]	MIC [1, 3] [µM]	MIC [1, 4] [µM]	MIC in μM, SL1344 wt ([1]; ∼10^5 cfu/ml) [µM]	MIC in μM, SL1344 ΔphoP (SL1344 ΔphoP)	increase in the MIC in the PhoP^C background compared to the wild-type strain (LT2 PhoP^C)	MIC in μM, LT2 PhoP^C (LT2 PhoP^C)	reduction in acpP transcript levels (RNA-seq) (acpP mRNA)	logFC acpP (acpP mRNA)	also measured
GRKKKRRQRRRYK [Tat-acpP, Tat peptide conjugated to 10-mer antisense PNA against acpP]	22	5	10	5	2.5 µM	at least two to four times more resistant	10 µM	~3 fold	-1.6191	reduction in the MIC of the ΔphoP strain compared to wild-type Salmonella (SL1344 ΔphoP; SL1344 ΔphoP versus SL1344 wt): 2 fold; number of differentially expressed sRNAs, apart from AmgR upregulation ([2]; RNA-seq, 10 μM): five; logFC SL1344_0066A [2, 5]: 4.741; logFC SL1344_2742 [2, 5]: 3.794; logFC sseG ([2]; edgeR, versus water, 10 μM, triplicates): 3.37; logFC recJ ([2]; edgeR, versus water, 10 μM, triplicates, listed as PNATAT): 1.967
KFFKFFKFFK [KFF-acpP, KFF peptide conjugated to 10-mer antisense PNA against the translational start site of acpP]	5	1.25	5	1.25	did not alter the MIC and 1.25 μM		did not influence the inhibitory activity and 1.25 μM	4.5- to 5 fold	-2.241	number of differentially expressed genes ([2]; absolute fold change >2 and FDR-adjusted P-value <0.001 versus water, 5 μM KFF-/RXR-constructs, 10 μM Tat-constructs): 5; upregulation of AmgR transcript levels ([2]; RNA-seq, 5 μM): ~1.9 fold; upregulation of mig-14, virK and yfiA mRNAs ([2]; RNA-seq, 5 μM): 2- to 4 fold; logFC yfiA ([2]; edgeR, versus water, 5 μM KFF-/RXR-constructs, 10 μM Tat-constructs, triplicates): 1.09; logFC mig-14 [2, 6]: 1.3466; logFC virK [2, 6]: 1.758
RXRRXRRXRRXRXB [RXR-acpP, RXR peptide conjugated to 10-mer antisense PNA against acpP]	11	2.5	5	2.5	1.25 to 2.5 µM	2 fold	2.5 µM	4.5- to 5 fold	-2.35	number of downregulated sRNAs, apart from the induction of AmgR ([2]; RNA-seq, 5 μM): four; upregulation of mig-14 ([2]; RNA-seq, 5 μM): 1.89 fold; logFC SL1344_0066A [2, 7]: 4.762; logFC SL1344_2742 [2, 7]: 3.54; logFC mgtA [2, 7]: 1.7; logFC hfq ([2]; edgeR, versus water, 5 μM, triplicates): -1.309
